From ChEMBL document CHEMBL4808234, “Substituent effects of cyclic naphthalene diimide on G-quadruplex binding and the inhibition of cancer cell growth” (Bioorg Med Chem Lett, 2021)
Calls of active or inactive are those of the source. The calls are words filed in the database; no cut-off is given here.

Tests used:
Quadruplex DNA [1] = assay: Binding affinity to c-myc G4 DNA 5'-TGAGGGTGGGGAGGGTGGGGAA-3' (unknown origin) assessed as Gibbs free energy change measured under molecular crowding conditions by isothermal titration calorimetry; type: nucleic-acid assay; conditions: Homo sapiens
Quadruplex DNA [2] = assay: Binding affinity to c-myc G4 DNA 5'-TGAGGGTGGGGAGGGTGGGGAA-3' (unknown origin) assessed as change in entropy measured under molecular crowding conditions by isothermal titration calorimetry; type: nucleic-acid assay; conditions: Homo sapiens
Quadruplex DNA [3] = assay: Binding affinity to c-myc G4 DNA 5'-TGAGGGTGGGGAGGGTGGGGAA-3' (unknown origin) assessed as change in enthalpy measured under dilution conditions by isothermal titration calorimetry; type: nucleic-acid assay; conditions: Homo sapiens
Quadruplex DNA [4] = assay: Binding affinity to c-myc G4 DNA 5'-TGAGGGTGGGGAGGGTGGGGAA-3' (unknown origin) assessed as change in enthalpy measured under molecular crowding conditions by isothermal titration calorimetry; type: nucleic-acid assay; conditions: Homo sapiens
[5] = biological target: Telomerase reverse transcriptase (Homo sapiens) (UniProt O14746); assay: Inhibition of telomerase in human A549 cell lysate using TA-core (5'-TAGGGTTAGGGTTAGGGTTAGGG-3') and Rev21G (5'-TCT CGT CTF CCC TAA-3') as primer by PCR stop assay; type: subcellular
Telomerase reverse transcriptase (Homo sapiens), sequence (O14746 whole entry): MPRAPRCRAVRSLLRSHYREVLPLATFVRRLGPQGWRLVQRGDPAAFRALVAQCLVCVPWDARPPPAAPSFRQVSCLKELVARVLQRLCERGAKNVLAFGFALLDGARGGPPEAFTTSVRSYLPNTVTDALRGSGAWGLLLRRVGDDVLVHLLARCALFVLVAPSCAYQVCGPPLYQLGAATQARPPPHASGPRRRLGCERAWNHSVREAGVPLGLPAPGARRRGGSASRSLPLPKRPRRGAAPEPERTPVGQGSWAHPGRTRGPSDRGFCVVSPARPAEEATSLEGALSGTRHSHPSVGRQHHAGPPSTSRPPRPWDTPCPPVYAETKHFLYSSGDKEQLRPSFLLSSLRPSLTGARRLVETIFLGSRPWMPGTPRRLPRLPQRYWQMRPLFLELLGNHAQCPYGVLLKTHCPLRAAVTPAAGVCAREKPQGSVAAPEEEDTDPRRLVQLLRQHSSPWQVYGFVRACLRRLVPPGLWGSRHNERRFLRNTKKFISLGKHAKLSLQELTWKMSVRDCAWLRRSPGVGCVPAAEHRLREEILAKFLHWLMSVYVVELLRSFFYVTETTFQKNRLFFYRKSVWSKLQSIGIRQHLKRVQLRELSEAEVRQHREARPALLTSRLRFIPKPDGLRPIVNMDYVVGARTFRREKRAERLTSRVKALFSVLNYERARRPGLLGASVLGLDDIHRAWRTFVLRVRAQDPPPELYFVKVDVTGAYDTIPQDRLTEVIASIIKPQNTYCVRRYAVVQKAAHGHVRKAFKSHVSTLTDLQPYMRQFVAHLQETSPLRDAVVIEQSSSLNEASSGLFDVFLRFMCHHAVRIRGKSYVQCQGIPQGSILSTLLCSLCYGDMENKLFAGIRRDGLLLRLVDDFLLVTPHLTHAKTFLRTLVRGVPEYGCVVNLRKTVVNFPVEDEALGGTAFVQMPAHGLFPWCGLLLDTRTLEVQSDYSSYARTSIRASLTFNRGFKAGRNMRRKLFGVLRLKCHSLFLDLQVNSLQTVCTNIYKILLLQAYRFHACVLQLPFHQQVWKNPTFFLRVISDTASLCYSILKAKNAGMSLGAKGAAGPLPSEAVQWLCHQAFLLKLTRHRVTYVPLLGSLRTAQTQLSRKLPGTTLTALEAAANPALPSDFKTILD

Bone marrow cell [6] = assay: Growth inhibition of human Bone marrow at 0.1 uM cell incubated for 24 hrs by CCK8 assay; type: cell-based
Quadruplex DNA [7] = assay: Binding affinity at TA-core G4 DNA 5'-TAGGGTTAGGGTTAGGGTTAGGG-3' (unknown origin) assessed as circular dichroism changes up to 4.5 uM by spectrophotometric method; type: nucleic-acid assay; conditions: Homo sapiens; dose microM <=4.5
Quadruplex DNA [8] = assay: Binding affinity to TA-core G4 DNA 5'-TAGGGTTAGGGTTAGGGTTAGGG-3' (unknown origin) assessed as change in enthalpy measured under molecular crowding conditions by isothermal titration calorimetry; type: nucleic-acid assay; conditions: Homo sapiens
Quadruplex DNA [9] = assay: Binding affinity to c-myc G4 DNA 5'-TGAGGGTGGGGAGGGTGGGGAA-3' (unknown origin) assessed as change in entropy measured under dilution conditions by isothermal titration calorimetry; type: nucleic-acid assay; conditions: Homo sapiens
Quadruplex DNA [10] = assay: Binding affinity to c-myc G4 DNA 5'-TGAGGGTGGGGAGGGTGGGGAA-3' (unknown origin) assessed as association constant at equilibrium measured under molecular crowding conditions by isothermal titration calorimetry; type: nucleic-acid assay; conditions: Homo sapiens
Quadruplex DNA [11] = assay: Binding affinity to TA-core G4 DNA 5'-TAGGGTTAGGGTTAGGGTTAGGG-3' (unknown origin) assessed as Gibbs free energy change measured under molecular crowding conditions by isothermal titration calorimetry; type: nucleic-acid assay; conditions: Homo sapiens
Quadruplex DNA [12] = assay: Binding affinity to TA-core G4 DNA 5'-TAGGGTTAGGGTTAGGGTTAGGG-3' (unknown origin) assessed as change in entropy measured under molecular crowding conditions by isothermal titration calorimetry; type: nucleic-acid assay; conditions: Homo sapiens
Quadruplex DNA [13] = assay: Binding affinity to TA-core G4 DNA 5'-TAGGGTTAGGGTTAGGGTTAGGG-3' (unknown origin) assessed as association constant at equilibrium measured under molecular crowding conditions by isothermal titration calorimetry; type: nucleic-acid assay; conditions: Homo sapiens
Quadruplex DNA [14] = assay: Binding affinity at c-myc G4 DNA 5'-TGAGGGTGGGGAGGGTGGGGAA-3' (unknown origin) assessed as circular dichroism changes up to 4.5 uM by spectrophotometric method; type: nucleic-acid assay; conditions: Homo sapiens; dose microM <=4.5
Quadruplex DNA [15] = assay: Binding affinity to TA-core G4 DNA 5'-TAGGGTTAGGGTTAGGGTTAGGG-3' (unknown origin) assessed as Gibbs free energy change measured under dilution conditions by isothermal titration calorimetry; type: nucleic-acid assay; conditions: Homo sapiens
Quadruplex DNA [16] = assay: Binding affinity to c-myc G4 DNA 5'-TGAGGGTGGGGAGGGTGGGGAA-3' (unknown origin) assessed as Gibbs free energy change measured under dilution conditions by isothermal titration calorimetry; type: nucleic-acid assay; conditions: Homo sapiens
Quadruplex DNA [17] = assay: Binding affinity to TA-core G4 DNA 5'-TAGGGTTAGGGTTAGGGTTAGGG-3' (unknown origin) assessed as change in enthalpy measured under dilution conditions by isothermal titration calorimetry; type: nucleic-acid assay; conditions: Homo sapiens
Bone marrow cell [18] = assay: Growth inhibition of human Bone marrow cell incubated for 24 hrs by CCK8 assay; type: cell-based
[19] = Growth inhibition of human NHEK cells incubated for 24 hrs by CCK8 assay; type: tissue-based
Quadruplex DNA [20] = assay: Binding affinity to c-myc G4 DNA 5'-TGAGGGTGGGGAGGGTGGGGAA-3' (unknown origin) assessed as association constant at equilibrium measured under dilution conditions by isothermal titration calorimetry; type: nucleic-acid assay; conditions: Homo sapiens
Quadruplex DNA [21] = assay: Binding affinity at TA-core G4 DNA 5'-TAGGGTTAGGGTTAGGGTTAGGG-3' (unknown origin) assessed as change in melting temperature by circular dichroism spectrophotometric method; type: nucleic-acid assay; conditions: Homo sapiens
Quadruplex DNA [22] = assay: Binding affinity to TA-core G4 DNA 5'-TAGGGTTAGGGTTAGGGTTAGGG-3' (unknown origin) assessed as change in entropy measured under dilution conditions by isothermal titration calorimetry; type: nucleic-acid assay; conditions: Homo sapiens
Quadruplex DNA [23] = assay: Binding affinity to TA-core G4 DNA 5'-TAGGGTTAGGGTTAGGGTTAGGG-3' (unknown origin) assessed as association constant at equilibrium measured under dilution conditions by isothermal titration calorimetry; type: nucleic-acid assay; conditions: Homo sapiens
[24] = Growth inhibition of human NHEK cells at 0.1 uM incubated for 24 hrs by CCK8 assay; type: tissue-based; conditions: read-out: GI
Ca9-22 [25] = assay: Growth inhibition of human Ca9-22 cells incubated for 24 hrs by CCK8 assay; type: functional, cell-based
Ca9-22 [26] = assay: Growth inhibition of human Ca9-22 cells at 0.1 uM incubated for 24 hrs by CCK8 assay; type: functional; conditions: read-out: GI

deltaG (Quadruplex DNA [1]) [kcal/mol] | -TdeltaS (Quadruplex DNA [2]) [kcal/mol] | deltaH (Quadruplex DNA [3]) [kcal/mol] | deltaH (Quadruplex DNA [4]) [kcal/mol] | inhibition [5] | Activity (Quadruplex DNA [7]) | deltaH (Quadruplex DNA [8]) [kcal/mol] | -TdeltaS (Quadruplex DNA [9]) [kcal/mol] | Ka (Quadruplex DNA [10]) [M⁻¹] | deltaG (Quadruplex DNA [11]) [kcal/mol] | -TdeltaS (Quadruplex DNA [12]) [kcal/mol] | Ka (Quadruplex DNA [13]) [M⁻¹] | Activity (Quadruplex DNA [14]) | deltaG (Quadruplex DNA [15]) [kcal/mol] | deltaG (Quadruplex DNA [16]) [kcal/mol] | deltaH (Quadruplex DNA [17]) [kcal/mol] | Ka (Quadruplex DNA [20]) [M⁻¹] | ΔTm (Quadruplex DNA [21]) [°C] | -TdeltaS (Quadruplex DNA [22]) [kcal/mol] | Ka (Quadruplex DNA [23]) [M⁻¹] | Structure (SMILES) | other results
-8 | 12 | -14 | -20 | Active | Active | -43 | 4.7 | 700000 | -7.9 | 35 | 600000 | Active | -8.6 | -9.3 | -13 | 6.2e+06 | 10 | 4.4 | 1.5e+06 | CN1CCCNC(=O)CC2(CCCCC2)CC(=O)NCCCN(C)CCCN2C(=O)c3ccc4c5c(ccc(c35)C2=O)C(=O)N(CCC1)C4=O | Activity (Bone marrow cell [6]): Non-Toxic; Activity (Bone marrow cell [18]): Non-Toxic; Activity [19]: Non-Toxic; inhibition at 24 h, 0.1 µM [24]: 40%; Activity (Ca9-22 [25]): Active; inhibition of growth at 0.1 µM (Ca9-22 [26]): > 70%
-7.6 | 41 | -11 | -48 | Active | Active | -29 | 2.3 | 400000 | -8 | 21 | 700000 | Active | -8.5 | -8.7 | -11 | 2.6e+06 | 10 | 2.5 | 1.7e+06 | CN1CCCNC(=O)CC(C)(C)CC(=O)NCCCN(C)CCCN2C(=O)c3ccc4c5c(ccc(c35)C2=O)C(=O)N(CCC1)C4=O | Activity (Ca9-22 [25]): Active
-8.5 | 12 | -11 | -20 | Active | Active | -22 | 2.9 | 1.6e+06 | -8.6 | 14 | 1.9e+06 | Active | -8.9 | -8.1 | -8.5 | 1.1e+06 | 10 | -0.4 | 3.4e+06 | CN1CCCNC(=O)CCCC(=O)NCCCN(C)CCCN2C(=O)c3ccc4c5c(ccc(c35)C2=O)C(=O)N(CCC1)C4=O | Activity (Ca9-22 [25]): Active
-8 | 45 | -10 | -53 | Active | Active | -35 | 1.3 | 800000 | -8 | 27 | 700000 | Active | -8.6 | -8.7 | -9 | 2.4e+06 | 10 | 0.36 | 2.2e+06 | CN1CCCNC(=O)c2cccc(c2)C(=O)NCCCN(C)CCCN2C(=O)c3ccc4c5c(ccc(c35)C2=O)C(=O)N(CCC1)C4=O | Activity (Ca9-22 [25]): Active
